Data on 24 compounds can be found in US20130244999A1, “Substituted Heterocyclic Compounds” (Incyte Corporation, priority 2008, published 2013).

Structures are written as SMILES.

The first assay deals with T1, histamine H4 receptor (Homo sapiens, UniProt Q9H3N8).
T1 construct: expressed in transfected cells; host or cells: HEK293SFM cells (membrane preparation)
T1 sequence (Q9H3N8 whole entry): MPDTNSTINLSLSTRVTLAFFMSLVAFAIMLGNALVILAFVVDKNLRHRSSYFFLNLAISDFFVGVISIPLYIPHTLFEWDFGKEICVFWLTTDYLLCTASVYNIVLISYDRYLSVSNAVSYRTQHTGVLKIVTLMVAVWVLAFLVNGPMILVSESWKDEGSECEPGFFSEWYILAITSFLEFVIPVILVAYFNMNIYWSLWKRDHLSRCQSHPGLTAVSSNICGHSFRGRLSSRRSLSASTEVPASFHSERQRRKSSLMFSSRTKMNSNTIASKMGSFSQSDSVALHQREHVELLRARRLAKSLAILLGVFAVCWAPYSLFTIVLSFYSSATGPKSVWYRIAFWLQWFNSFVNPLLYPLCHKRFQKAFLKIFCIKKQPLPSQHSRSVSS
In words: Inhibition of histamine H4 receptor (Table A1; H4 membrane binding assay).
Conditions: not given
Summed up: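 Radioligand binding was measured by filtration through PEI-treated GF/B filters with scintillation counting, using 1000× unlabeled ligand to define nonspecific binding. Membranes were prepared from HEK293SFM cells recombinantly expressing human H4 in ice-cold 50 mM Tris-HCl, pH 7.5, plus protease inhibitors.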
`CCNC(=O)c1cc(-c2ccc3c(c2)CN(c2cc(N4CCN(C)CC4)nc(N)n2)C(C)C3)cn1C` (single isomer, unassigned) [Example 88B, 4-{2-[2-Amino-6-(4-methylpiperazin-1-yl)pyrimidin-4-yl]-3-methyl-1,2,3,4-tetrahydroisoquinolin-7-yl}-N-ethyl-1-methyl-1H-pyrrole-2-carboxamide] had an inhibition at 1 µM of 74%.

On to `CC1Cc2ccc(-c3cc(C(=O)N(C)C)n(C)c3)cc2CN1c1cc(N2CCN(C)CC2)nc(N)n1` (single isomer, unassigned) [Example 89B, 4-{2-[2-Amino-6-(4-methylpiperazin-1-yl)pyrimidin-4-yl]-3-methyl-1,2,3,4-tetrahydroisoquinolin-7-yl}-N,1N,1-trimethyl-1H-pyrrole-2-carboxamide], for which testing at 1 µM gave an inhibition of 67%.

`CC(C)NC(=O)c1cc(-c2ccc3c(c2)CN(c2cc(N4CCN(C)CC4)nc(N)n2)C(C)C3)cn1C` (single isomer, unassigned) [Example 90B, 4-{2-[2-Amino-6-(4-methylpiperazin-1-yl)pyrimidin-4-yl]-3-methyl-1,2,3,4-tetrahydroisoquinolin-7-yl}-N-isopropyl-1-methyl-1H-pyrrole-2-carboxamide] gave an inhibition at 1 µM of 72%.

`CC1Cc2ccc(-c3cc(C(=O)NC4CC4)n(C)c3)cc2CN1c1cc(N2CCN(C)CC2)nc(N)n1` (single isomer, unassigned) [Example 91B, 4-{2-[2-Amino-6-(4-methylpiperazin-1-yl)pyrimidin-4-yl]-3-methyl-1,2,3,4-tetrahydroisoquinolin-7-yl}-N-cyclopropyl-1-methyl-1H-pyrrole-2-carboxamide] had an inhibition at 1 µM of 76%.

`CC1Cc2ccc(-c3cnn(CC4(C#N)CC4)c3)cc2CN1c1cc(N2CCN(C)CC2)nc(N)n1` (single isomer, unassigned) [Example 97B, 1-[(4-{2-[2-amino-6-(4-methylpiperazin-1-yl)pyrimidin-4-yl]-3-methyl-1,2,3,4-tetrahydroisoquinolin-7-yl}-1H-pyrazol-1-yl)methyl]cyclopropanecarbonitrile] yielded an inhibition at 1 µM of 72%.

The same assay, now with this note: histamine H4 receptor; "> a" = exceeds experiment limit.
For `CC1Cc2ccc(-c3cc(C(=O)N(C)C)n(C)c3)cc2CN1c1cc(N2CCN(C)CC2)nc(N)n1` (single isomer, unassigned) [Example 89A, 4-{2-[2-Amino-6-(4-methylpiperazin-1-yl)pyrimidin-4-yl]-3-methyl-1,2,3,4-tetrahydroisoquinolin-7-yl}-N,1N,1-trimethyl-1H-pyrrole-2-carboxamide], the half-inhibitory concentration (IC50) turned out to be 0.026 µM.

On to `CC(C)NC(=O)c1cc(-c2ccc3c(c2)CN(c2cc(N4CCN(C)CC4)nc(N)n2)C(C)C3)cn1C` (single isomer, unassigned) [Example 90A, 4-{2-[2-Amino-6-(4-methylpiperazin-1-yl)pyrimidin-4-yl]-3-methyl-1,2,3,4-tetrahydroisoquinolin-7-yl}-N-isopropyl-1-methyl-1H-pyrrole-2-carboxamide], for which the IC50 is 0.066 µM. This IC50 lies about 2.5-fold higher than the previous one.

With `CC1Cc2ccc(-c3cc(C(=O)NC4CC4)n(C)c3)cc2CN1c1cc(N2CCN(C)CC2)nc(N)n1` (single isomer, unassigned) [Example 91A, 4-{2-[2-Amino-6-(4-methylpiperazin-1-yl)pyrimidin-4-yl]-3-methyl-1,2,3,4-tetrahydroisoquinolin-7-yl}-N-cyclopropyl-1-methyl-1H-pyrrole-2-carboxamide], the IC50 amounted to 0.049 µM.

Turning to `CC1Cc2ccc(-c3cc(C(=O)N4CCC4)n(C)c3)cc2CN1c1cc(N2CCN(C)CC2)nc(N)n1` (single isomer, unassigned) [Example 92A, 4-[7-[5-(azetidin-1-ylcarbonyl)-1-methyl-1H-pyrrol-3-yl]-3-methyl-3,4-dihydroisoquinolin-2(1H)-yl]-6-(4-methylpiperazin-1-yl)pyrimidin-2-amine], the half-maximal inhibitory concentration (IC50) is 0.025 µM.

The compound `CC1Cc2ccc(-c3cc(C(=O)N4CCC4)n(C)c3)cc2CN1c1cc(N2CCN(C)CC2)nc(N)n1` (single isomer, unassigned) [Example 92B, 4-[7-[5-(azetidin-1-ylcarbonyl)-1-methyl-1H-pyrrol-3-yl]-3-methyl-3,4-dihydroisoquinolin-2(1H)-yl]-6-(4-methylpiperazin-1-yl)pyrimidin-2-amine] returned an IC50 of 0.127 µM.

The compound `CC1Cc2ccc(-c3cc(C(=O)N(C)CCN(C)C)n(C)c3)cc2CN1c1cc(N2CCN(C)CC2)nc(N)n1` (single isomer, unassigned) [Example 93, 4-{2-[2-Amino-6-(4-methylpiperazin-1-yl)pyrimidin-4-yl]-3-methyl-1,2,3,4-tetrahydroisoquinolin-7-yl}-N-[2-(dimethylamino)ethyl]-N,1-dimethyl-1H-pyrrole-2-carboxamide] had an IC50 of 0.024 µM.

In the case of `CC1Cc2ccc(-c3cc(C(=O)N4CCC(N(C)C)C4)n(C)c3)cc2CN1c1cc(N2CCN(C)CC2)nc(N)n1` (single isomer, unassigned) [Example 94, 4-[7-(5-{[3-(Dimethylamino)pyrrolidin-1-yl]carbonyl}-1-methyl-1H-pyrrol-3-yl)-3-methyl-3,4-dihydroisoquinolin-2(1H)-yl]-6-(4-methylpiperazin-1-yl)pyrimidin-2-amine], the IC50 came out at 0.03 µM.

For `CC1Cc2ccc(-c3cnn(C4CCOCC4)c3)cc2CN1c1cc(N2CCN(C)CC2)nc(N)n1` (single isomer, unassigned) [Example 95A, 4-(4-methylpiperazin-1-yl)-6-[3-methyl-7-[1-(tetrahydro-2H-pyran-4-yl)-1H-pyrazol-4-yl]-3,4-dihydroisoquinolin-2(1H)-yl]pyrimidin-2-amine], the IC50 came out at 0.035 µM. This IC50 and that of the compound before are within 1.5-fold of each other.

`CC1Cc2ccc(-c3cnn(CCC#N)c3)cc2CN1c1cc(N2CCN(C)CC2)nc(N)n1` (single isomer, unassigned) [Example 96A, 3-(4-{2-[2-amino-6-(4-methylpiperazin-1-yl)pyrimidin-4-yl]-3-methyl-1,2,3,4-tetrahydroisoquinolin-7-yl}-1H-pyrazol-1-yl)propanenitrile] yielded a half-inhibitory concentration (IC50) of 0.026 µM.

For the compound `CC1Cc2ccc(-c3cnn(CCC#N)c3)cc2CN1c1cc(N2CCN(C)CC2)nc(N)n1` (single isomer, unassigned) [Example 96B, 3-(4-{2-[2-Amino-6-(4-methylpiperazin-1-yl)pyrimidin-4-yl]-3-methyl-1,2,3,4-tetrahydroisoquinolin-7-yl}-1H-pyrazol-1-yl)propanenitrile], the IC50 was 0.352 µM.

`CC1Cc2ccc(-c3cnn(CC4(C#N)CC4)c3)cc2CN1c1cc(N2CCN(C)CC2)nc(N)n1` (single isomer, unassigned) [Example 97A, 1-[(4-{2-[2-amino-6-(4-methylpiperazin-1-yl)pyrimidin-4-yl]-3-methyl-1,2,3,4-tetrahydroisoquinolin-7-yl}-1H-pyrazol-1-yl)methyl]cyclopropanecarbonitrile] returned an IC50 of 0.044 µM.

As to `CC1Cc2ccc(-c3cnn(C4CCS(=O)(=O)C4)c3)cc2CN1c1cc(N2CCN(C)CC2)nc(N)n1` (single isomer, unassigned) [Example 98A, 4-[7-[1-(1,1-dioxidotetrahydro-3-thienyl)-1H-pyrazol-4-yl]-3-methyl-3,4-dihydroisoquinolin-2(1H)-yl]-6-(4-methylpiperazin-1-yl)pyrimidin-2-amine], the IC50 stood at 0.024 µM.

In turn, `CC1Cc2ccc(-c3cnn(CC4CCCO4)c3)cc2CN1c1cc(N2CCN(C)CC2)nc(N)n1` (single isomer, unassigned) [Example 99A, 4-(4-Methylpiperazin-1-yl)-6-[3-methyl-7-[1-(tetrahydrofuran-2-ylmethyl)-1H-pyrazol-4-yl]-3,4-dihydroisoquinolin-2(1H)-yl]pyrimidin-2-amine] registered an IC50 of 0.083 µM.

With `CC1Cc2ccc(-c3cnn(CC4CCCO4)c3)cc2CN1c1cc(N2CCN(C)CC2)nc(N)n1` (single isomer, unassigned) [Example 99B, 4-(4-Methylpiperazin-1-yl)-6-[3-methyl-7-[1-(tetrahydrofuran-2-ylmethyl)-1H-pyrazol-4-yl]-3,4-dihydroisoquinolin-2(1H)-yl]pyrimidin-2-amine], the IC50 stood at 0.172 µM.

As for `CC1Cc2ccc(-c3cnn(CCF)c3)cc2CN1c1cc(N2CCN(C)CC2)nc(N)n1` (single isomer, unassigned) [Example 100, 4-[7-[1-(2-fluoroethyl)-1H-pyrazol-4-yl]-3-methyl-3,4-dihydroisoquinolin-2(1H)-yl]-6-(4-methylpiperazin-1-yl)pyrimidin-2-amine], the IC50 was 0.02 µM.

The compound `CC(C#N)Cn1cc(-c2ccc3c(c2)CN(c2cc(N4CCN(C)CC4)nc(N)n2)C(C)C3)cn1` (single isomer, unassigned) [Example 101, 3-(4-{2-[2-Amino-6-(4-methylpiperazin-1-yl)pyrimidin-4-yl]-3-methyl-1,2,3,4-tetrahydroisoquinolin-7-yl}-1H-pyrazol-1-yl)-2-methylpropanenitrile] registered an IC50 of 0.034 µM.

For `CC1Cc2ccc(-c3cnn(CC4CC4)c3)cc2CN1c1cc(N2CCN(C)CC2)nc(N)n1` (single isomer, unassigned) [Example 102, 4-[7-[1-(Cyclopropylmethyl)-1H-pyrazol-4-yl]-3-methyl-3,4-dihydroisoquinolin-2(1H)-yl]-6-(4-methylpiperazin-1-yl)pyrimidin-2-amine], the IC50 was 0.042 µM.

With `CC1Cc2ccc(-c3cnn(C(C)CC#N)c3)cc2CN1c1cc(N2CCN(C)CC2)nc(N)n1` (single isomer, unassigned) [Example 103, 3-(4-{2-[2-Amino-6-(4-methylpiperazin-1-yl)pyrimidin-4-yl]-3-methyl-1,2,3,4-tetrahydroisoquinolin-7-yl}-1H-pyrazol-1-yl)butanenitrile], the IC50 is 0.024 µM.

For `CC1Cc2ccc(-c3cnn(CCN4CCOCC4)c3)cc2CN1c1cc(N2CCN(C)CC2)nc(N)n1` (single isomer, unassigned) [Example 104, 4-[3-Methyl-7-[1-(2-morpholin-4-ylethyl)-1H-pyrazol-4-yl]-3,4-dihydroisoquinolin-2(1H)-yl]-6-(4-methylpiperazin-1-yl)pyrimidin-2-amine], the IC50 is 0.045 µM.
